{"source": "patent US7033618B2", "about": "“Methods of administering gaultherin-containing compositions” (Rutgers University, The State University of New Jersey, priority 1999, dated 2006)", "key": {"[1]": {"experiment": "Gastric irritation in fasted rats", "type": "in vivo, Wistar rats", "settings": "oral gavage, overnight-fasted rats, 4 h after treatment, extract 5000 mg/kg; for Gastric irritation Total Score: total for three rats (0-4 each), aspirin 150 mg/kg (equal total salicylate)", "method": "Wintergreen-derived, gaultherin-containing extract and aspirin were given by oral gavage to overnight-fasted Wistar rats (200+/−20 g). The 5000 mg/kg dose of wintergreen extract and the 150 mg/kg dose of aspirin used in the experiment contain equal total amounts of salicylate. Four hours after treatment, the stomach lining was harvested and scored for gastric irritation [Guth et al., Gastroenterology, 76: 88–93 (1979)]. A score of zero was given for no sign of hyperaemia (excess blood or engorgement with blood) or bleeding. A score of one was given when hyperaemia was evident. A score of two was given when some spot bleeding was observed. A score of three was assigned for any hyperaemia and spot bleeding and a score of four for hyperaemia and spot bleeding occurred over the entire stomach. The total aspirin score for three rats was nine as all three rats experienced some hyperaemia and spot bleeding. The total wintergreen-derived, gaultherin-containing extract score was two because only two of the three rats were noted to have some hyperaemia. Based on these responses, the gastric irritation caused by wintergreen extract was substantially less (approximately five times lower) than that caused by aspirin."}, "[2]": {"test_system": "platelet aggregation in vivo (bleeding time in mouse tail tips)", "experiment": "In vivo bleeding time in mouse tail tips", "parameters": "species or system mice", "settings": "oral, pretreatment time 1 h, Aspirin 100 mg/kg", "method": "Wintergreen-derived gaultherin containing extracts were also shown to inhibit platelet aggregation in vivo. […] The gaultherin-containing extract prolonged mouse bleeding times assessed at 1, 3, and 6 hours after treatment. Therefore, gaultherin-containing extracts prevent platelet aggregation in vitro and in vivo. In vivo assay: The gaultherin-containing extract was mixed with vehicle (2% Tween 80/distilled water) and orally administered to 5 ICR […] (22+2 g) at the doses given in Table V. After 1, 3, or 6 hours of treatment, the mice were suspended in holders and 0.5 mm of the tip of each tail was transected and immersed in a test tube containing saline at 37° C. The bleeding time is defined as the time required for the bleeding to cease for a period of greater than 15 seconds. Prolongation of the bleeding time over that of control animals was then calculated. Aspirin was used as the standard to ensure that the assay was performing as expected."}, "[3]": {"experiment": "Rat hind paw inflammatory (edema and hyperalgesia) model, Freund's adjuvant", "type": "in vivo, Sprague-Dawley rats", "method": "Wintergreen-derived gaultherin-containing extract was administered by per-oral gavage at human dose equivalents of 200 mg and 400 mg per day and Naproxen was administered at a dose of 440 mg per day. Male Sprague-Dawley rats (300–350 grams) were treated for 5 days by gavage. Inflammation (edema and hyperalgesia) was induced 3 days prior to treatment through intraplantar injection of Freund's adjuvant (containing 170 μg Mycobacterium butyricum). Edema was determined by physical measurements of paw thickness and ankle width. Pain tolerance (i.e., pain reduction) was mechanically assessed via digital Von Frey determinations using a series of measurements at 6 locations on the surface of a paw. [Ren et al., ILAR Journal, 40(3):1–12 (1999), Kayser et al., Pain, 28:99–107 (1987)] Measurement terminated at the point of paw withdrawal, auditable indication of discomfort, or animal shuddering. Measurements were performed on left and right paws."}}, "data": [{"smiles": "CC(=O)Oc1ccccc1C(=O)O", "note": "[Aspirin, acetylsalicylic acid]", "values": [{"measurement": "Gastric irritation Total Score", "setting": "[1]", "result": 9}, {"measurement": "Gastric irritation Total Score", "setting": "[1]; listed as aspirin", "result": "nine"}, {"measurement": "Gastric irritation Response", "setting": "[1]; aspirin 150 mg/kg", "result": 100, "unit": "%"}, {"measurement": "Avg. Bleed Time, Exp. 2", "setting": "[2]", "result": 114, "unit": "s"}, {"measurement": "Avg. Bleed Time, Exp. 1", "setting": "[2]; W. Extract 5000 mg/kg", "result": 120, "unit": "s"}, {"measurement": "Prolongation of bleeding time, Exp. 1", "setting": "[2]; W. Extract 5000 mg/kg, over control animals", "result": 100, "unit": "%"}, {"measurement": "Prolongation of bleeding time, Exp. 2", "setting": "[2]; over control animals", "result": 73, "unit": "%"}]}, {"smiles": "COC(=O)c1ccccc1O[C@@H]1O[C@H](CO[C@@H]2OC[C@@H](O)[C@H](O)[C@H]2O)[C@@H](O)[C@H](O)[C@H]1O", "note": "[Gaultherin, gaultherin]", "values": [{"measurement": "Edema reduction", "setting": "[3]; 200 mg/day (human dose equivalent) for 5 days, per-oral gavage", "result": 12.2, "unit": "%"}, {"measurement": "Edema reduction", "setting": "[3]; 400 mg/day (human dose equivalent) for 5 days, per-oral gavage", "result": 16.9, "unit": "%"}, {"measurement": "improvement in pain tolerance (digital Von Frey)", "setting": "[3]; human dose equivalent of 200 mg per day, 5 days, gavage", "result": 6.7, "unit": "%"}, {"measurement": "improvement in pain tolerance (digital Von Frey)", "setting": "[3]; human dose equivalent of 400 mg per day, 5 days, gavage", "result": 9.9, "unit": "%"}]}, {"smiles": "COc1ccc2cc([C@H](C)C(=O)O)ccc2c1", "note": "[Naproxen]", "values": [{"measurement": "anti-inflammatory and analgesic effect", "setting": "[3]; 440 mg per day, 5 days, gavage", "result": "predictable anti-inflammatory and analgesic effect"}, {"measurement": "Edema reduction", "setting": "[3]; 440 mg/day for 5 days, gavage", "result": 28, "unit": "%"}]}]}
